Measurements published in US12448383B2, “Compounds and methods for treatment of viral infections” (priority 2022, dated 2025).

Columns and labels:
[1] = tested on: Respiratory syncytial virus recombinant with luciferase (RSV-Luc5) in HEp-2 cells; assay: microbe, parasite or virus in culture; type: cell-based; conditions: human respiratory syncytial virus, HEp-2, 72 h, read-out: RSV Hep2 EC50
[2] = tested on: SARS Coronavirus 2 recombinant with NanoLuc (SARS-CoV2-NLuc) in A549-hACE2 cells; assay: organism not typed; type: cell-based; conditions: 48 h; read-out: SARS-CoV2 EC50
[3] = tested on: Respiratory syncytial virus recombinant with luciferase (RSV-Luc5) in Normal Human Bronchial Epithelial (NHBE) cells; assay: microbe, parasite or virus in culture; type: cell-based; conditions: 72 h, read-out: RSV NHBE EC50
[4] = CC50 MT4 cytotoxicity (Cell-Titer Glo); type: cell-based; conditions: human
In short: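 CC50 values are the concentrations cutting viability by 50%, fitted by non-linear regression against untreated (100%) and 2 μM puromycin (0%) controls. Cell-Titer Glo luminescence measured after 4-5 days at 37° C exposure of uninfected MT-4 and HEp-2 cells to 3-fold dilutions spanning 15 nM to 100,000 nM.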

[5] = GI S9 stability - no PMSF; type: in vitro ADME; conditions: pH 7.4; human intestinal S9, PMSF-free; read-out: GIS9-HUMAN-NoPMSF T1/2
In short: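 Stability was assessed by Q-Exactive LC-MS peak area ratios against internal standard, tracking loss of parent and appearance of nucleoside metabolite Reference Compound A. Incubations used 2 μM compound in 1 mg/mL intestinal S9 without PMSF (PBS, pH 7.4), with six samples taken over 120 min.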

Plasma stability = type: in vitro ADME; design: unit not given here; conditions: 37° C., 2 μM substrate
In short: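 LC-MS (Q-Exactive, 5 ppm tolerance, 0.1% formic acid water/acetonitrile gradient) quantified compound in quenched aliquots. Aliquots were taken at 0.05, 0.5, 1, 2, 3 and 4 hr and quenched with internal-standard solution, and supernatants were diluted with water after centrifugation.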

[6] = tested on: Caco-2 cells (clone C2BBe1); assay: CACO-2 permeability; type: in vitro ADME; design: unit not given here; conditions: for DM Caco2 A to B: apical to basolateral, donor pH 6.5, receiver pH 7.4; for DM Caco2 B to A: basolateral to apical
Description: Pre-plated Caco-2 cells (clone C2BBel) were obtained from Sigma-Aldrich, Inc. (Atlanta, GA). Cell monolayers were grown to confluence on collagen-coated, microporous, polycarbonate membranes in 24-well transwell plates for 21 days. The permeability assay buffer in donor wells was Hanks' balanced salt solution (HBSS) containing 10 mM HEPES and 15 mM glucose at a pH of 6.5 containing 200 μM BNPP. The receiver wells used HBSS buffer containing 10 mM HEPES and 15 mM glucose at a pH of 7.4 and supplemented with 1°% BSA. After an initial equilibration with transport buffer, TEER values were read to test membrane integrity. The experiment was started by the addition of buffers containing test compounds, 200 μl and 1000 μl in the apical and basolateral chamber, respectively. At 0- and 2-hour post dose, 10 μL was sampled from donor compartment and was immediately diluted in 190 μL of 20% methanol. At 1 and 2 hours post dose, 100 μl of solution was taken from the receiver compartments and was immediately diluted in 100 μl of 20% methanol. Removed buffer was replaced with fresh buffer and a correction was applied to all calculations for the removed material. Each compound was tested in 2 separate replicate wells for each condition. All samples were then extracted with 400 μl 100% acetonitrile with internal standard to precipitate protein. Cells were dosed on the apical or basolateral side to determine forward (A to B) and reverse (B to A) permeability. To test for non-specific binding and compound instability, the total amount of drug was quantitated at the end of the experiment and compared to the material present in the original dosing solution as a percent recovery. […] Samples were analyzed by LC-MS/MS.

Structure (SMILES)	EC50 [1] [µM]	EC50 [2] [µM]	EC50 [3] [µM]	CC50 [4] [µM]	half-life at 2 µM [5] [s]	STA Human Plasma 37 (Plasma stability)	DM Caco2 A to B [6]	DM Caco2 B to A [6]
CCC(C)(CC)OC(=O)OC[C@H]1O[C@@](C#N)(c2ccc3c(N)ncnn23)[C@H](O)[C@@H]1O [Compound 69, ((2R,3S,4R,5R)-5-(4-aminopyrrolo[2,1-f][1,2,4]triazin-7-yl)-5-cyano-3,4-dihydroaytetrahydrofuran-2-yl)methyl (3-methylpentan-3-yl) carbonate]	1.05	2.83	0.988	> 50	2920	294.49	1	4.74
N#C[C@@]1(c2ccc3c(N)ncnn23)O[C@H](COC(=O)OCc2ncccn2)[C@@H](O)[C@H]1O [Compound 91, ((2R,3S,4R,5R)-5-(4-aminopyrrolo[2,1-f][1,2,4]triazin-7-yl)-5-cyano-3,4-dihydroxytetrahydrofuran-2-yl)methyl (pyrimidin-2-ylmethyl) carbonate]	3.64	14.7	5.84	> 50	2520	285	0.02	0.5
C[C@H](OC(=O)OC[C@H]1O[C@@](C#N)(c2ccc3c(N)ncnn23)[C@H](O)[C@@H]1O)c1ccccc1 [Compound 88, ((2R,3S,4R,5R)-5-(4-aminopyrrolo[2,1-f][1,2,4]triazin-7-yl)-5-cyano-3,4-dihydroxytetrahydrofuran-2-yl)methyl ((S)-1-phenylethyl) carbonate]	0.382	1.63	0.0702	> 50	295	1584	2.72	12.82
N#C[C@@]1(c2ccc3c(N)ncnn23)O[C@H](COC(=O)OC2CC3(CCC3)C2)[C@@H](O)[C@H]1O [Compound 29, ((2R,3S,4R,5R)-5-(4-aminopyrrolo[2,1-f][1,2,4]triazin-7-yl)-5-cyano-3,4-dihydroxytetrahydrofuran-2-yl)methyl spiro[3.3]heptan-2-yl carbonate]	0.109	0.835	1.3	> 50	37	139	1.91	12.29
N#C[C@@]1(c2ccc3c(N)ncnn23)O[C@H](COC(=O)OCC23CCC(CC2)C3)[C@@H](O)[C@H]1O [Compound 52, ((2R,3S,4R,5R)-5-(4-aminopyrrolo[2,1-f][1,2,4]triazin-7-yl)-5-cyano-3,4-dihydroxytetrahydrofuran-2-yl)methyl (bicyclo[2.2.1]heptan-1-ylmethyl) carbonate]	0.1	0.574	0.919	38.8	39.3	85	6.95	13.04
CC1(OC(=O)OC[C@H]2O[C@@](C#N)(c3ccc4c(N)ncnn34)[C@H](O)[C@@H]2O)CCCC1 [Compound 56, ((2R,3S,4R,5R)-5-(4-aminopyrrolo[2,1-f][1,2,4]triazin-7-yl)-5-cyano-3,4-dihydroxytetrahydrofuran-2-yl)methyl (1-methylcyclopentyl) carbonate]	1.26	2.52	1.21	> 50	990	77.644	0.35	1.83
CC1(C)C2CCC1(C)C(OC(=O)OC[C@H]1O[C@@](C#N)(c3ccc4c(N)ncnn34)[C@H](O)[C@@H]1O)C2 (stereo partly drawn) [Compound 71, ((2R,3S,4R,5R)-5-(4-aminopyrrolo[2,1-f][1,2,4]triazin-7-yl)-5-cyano-3,4-dihydroxytetrahydrofuran-2-yl)methyl (1,7,7-trimethylbicyclo[2.2.1]heptan-2-yl) carbonate]	3.01	7.82	0.531	47.8	1550	1584	4.02	13.65
Cc1oc(=O)oc1COC(=O)OC[C@H]1O[C@@](C#N)(c2ccc3c(N)ncnn23)[C@H](O)[C@@H]1O [Compound 26, ((2R,3S,4R,5R)-5-(4-aminopyrrolo[2,1-f][1,2,4]triazin-7-yl)-5-cyano-3,4-dihydroxytetrahydrofuran-2-yl)methyl ((5-methyl-2-oxo-1,3-dioxol-4-yl)methyl) carbonate]	0.942	2.39	0.844	> 50	29.2	33.7	0.07	0.36
N#C[C@@]1(c2ccc3c(N)ncnn23)O[C@H](COC(=O)OCC2CCC2)[C@@H](O)[C@H]1O [Compound 53, ((2R,3S,4R,5R)-5-(4-aminopyrrolo[2,1-f][1,2,4]triazin-7-yl)-5-cyano-3,4-dihydroxytetrahydrofuran-2-yl)methyl (cyclobutylmethyl) carbonate]	0.098	0.662	0.833	> 50	38.2	13	2.34	10.58
N#C[C@@]1(c2ccc3c(N)ncnn23)O[C@H](COC(=O)OC2CCCCC2)[C@@H](O)[C@H]1O [Compound 35, ((2R,3S,4R,5R)-5-(4-aminopyrrolo[2,1-f][1,2,4]triazin-7-yl)-5-cyano-3,4-dihydroxytetrahydrofuran-2-yl)methyl cyclohexyl carbonate]	0.651	1.91	1.01	> 50	35.6	139.6	0.95	10.64
CC[C@H](C)OC(=O)OC[C@H]1O[C@@](C#N)(c2ccc3c(N)ncnn23)[C@H](O)[C@@H]1O [Compound 90, ((2R,3S,4R,5R)-5-(4-aminopyrrolo[2,1-f][1,2,4]triazin-7-yl)-5-cyano-3,4-dihydroxytetrahydrofuran-2-yl)methyl ((S)-sec-butyl) carbonate]	0.249	1.84	0.18	> 50	35.5	169.9	0.9	7.41
C[C@@H](OC(=O)OC[C@H]1O[C@@](C#N)(c2ccc3c(N)ncnn23)[C@H](O)[C@@H]1O)c1ccccc1 [Compound 87, ((2R,3S,4R,5R)-5-(4-aminopyrrolo[2,1-f][1,2,4]triazin-7-yl)-5-cyano-3,4-dihydroxytetrahydrofuran-2-yl)methyl ((R)-1-phenylethyl) carbonate]	0.345	1.05	0.559	> 50	74.9	28.7	1.79	10.98
N#C[C@@]1(c2ccc3c(N)ncnn23)O[C@H](COC(=O)OC2CCC(F)(F)CC2)[C@@H](O)[C@H]1O [Compound 84, ((2R,3S,4R,5R)-5-(4-aminopyrrolo[2,1-f][1,2,4]triazin-7-yl)-5-cyano-3,4-dihydroxytetrahydrofuran-2-yl)methyl (4,4-difluorocyclohexyl) carbonate]	0.311	1.54	0.205	> 50	57.3	327.2	0.27	6.99
